Source: the supplement of paper PMC10331698
± gives the standard deviation of the averaged measurements.

What was measured:
Assay in all cases: level (log10 ratio to DMSO vehicle control); higher = higher biomarker level / cell amount than vehicle control
Conditions in all cases: in DMSO
[1] = compound: C=C(C)C(=O)OCC(F)(F)C(F)(F)C(F)(F)C(F)(F)C(F)(F)C(F)(F)C(F)(F)F
Protocol: (§1)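 BioMAP Diversity Plus panel of 12 human primary cell co-culture systems (3C, 4H, LPS, SAg, BT, BF4T, BE3C, CASM3C, HDF3CGF, KF3CT, MyoF, Mphg). Compounds were added 1 h before stimulation and left for 24 h (MyoF 48 h; BT 72 h for soluble read-outs or 6 d for IgG). Biomarkers were read by ELISA, cytotoxicity by SRB, PBMC viability and proliferation by Alamar Blue. Each well value was divided by the mean of 8 DMSO control wells on the same plate and log10 transformed; duplicate blinded samples were tested at 4 concentrations.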

[2] = compound: CC(C)(C)C(=O)CC(=O)C(F)(F)C(F)(F)C(F)(F)F [(Heptafluorobutanoyl)pivaloylmethane]
Protocol: as §1

[3] = compound: O=C(O)C(F)(F)C(F)(F)C(F)(F)C(F)(F)C(F)(F)C(F)(F)C(F)(F)C(F)(F)C(F)(F)C(F)(F)C(F)(F)C(F)(F)C(F)(F)F [Perfluorotetradecanoic acid]
Protocol: as §1

[4] = compound: O=C(O)C(F)(F)C(F)(F)C(F)(F)C(F)(F)C(F)(F)C(F)(F)C(F)(F)C(F)(F)Cl [9-Chloro-perfluorononanoic acid]
Protocol: as §1

[5] = compound: O=C(O)C(F)(F)OC(F)(F)C(F)(F)OC(F)(F)C(F)(F)C(F)(F)C(F)(F)F [Perfluoro-3,6-dioxadecanoic acid]
Protocol: as §1

[6] = compound: O=C(O)CCC(F)(F)C(F)(F)C(F)(F)C(F)(F)C(F)(F)F [2H,2H,3H,3H-Perfluorooctanoic acid]
Protocol: as §1

[7] = compound: O=S(=O)(O)C(F)(F)C(F)(F)C(F)(F)C(F)(F)C(F)(F)C(F)(F)C(F)(F)C(F)(F)F [Perfluorooctanesulfonic acid]
Protocol: as §1

Row | Test System | level (log10) ([1]; 6700 nM) | level (log10) ([1]; 20000 nM) | level (log10) ([2]; 6700 nM) | level (log10) ([2]; 20000 nM) | level (log10) ([2]; 60000 nM) | level (log10) ([3]; 6700 nM) | level (log10) ([3]; 20000 nM) | level (log10) ([4]; 6700 nM) | level (log10) ([4]; 20000 nM) | level (log10) ([5]; 6700 nM) | level (log10) ([5]; 20000 nM) | level (log10) ([5]; 60000 nM) | level (log10) ([6]; 6700 nM) | level (log10) ([6]; 20000 nM) | level (log10) ([6]; 60000 nM) | level (log10) ([7]; 6700 nM) | level (log10) ([7]; 20000 nM) | level (log10) ([7]; 60000 nM)
1 | BF4T:CD90 | -0.0135 ± 0.0064 | -0.011 ± 0.0085 | -0.0065 ± 0.012 | -0.0015 ± 0.0035 | 0.004 ± 0.0028 | -0.0125 ± 0.011 | -0.005 ± 0.0042 | -0.034 ± 0.013 | -0.0285 ± 0.005 | -0.023 ± 0.0099 | -0.004 ± 0.0014 | 0.017 ± 0.0071 | -0.018 ± 0.011 | -0.019 ± 0.0014 | -0.02 ± 0.02 | -0.0015 ± 0.011 | 0.005 ± 0.0014 | 0.0135 ± 0.0021
2 | BF4T:SRB | 0.0005 ± 0.0078 | -0.005 ± 0.011 | -0.006 ± 0.0085 | 0.0075 ± 0.0021 | 0.0055 ± 0.023 | 0.0025 ± 0.0092 | 0.001 ± 0.0071 | -0.013 ± 0.0071 | -0.0555 ± 0.0064 | -0.024 ± 0.0014 | -0.023 ± 0.0057 | -0.053 ± 0.0085 | -0.0005 ± 0.0078 | -0.003 ± 0.013 | -0.005 ± 0.0028 | -0.0095 ± 0.0092 | -0.0115 ± 0.0021 | -0.0015 ± 0.026
3 | 3C:SRB | 0.0095 ± 0.015 | -0.0105 ± 0.022 | -0.001 ± 0.0057 | -0.003 ± 0.0071 | -0.061 ± 0.075 | -0.015 ± 0.0028 | -0.0165 ± 0.012 | -0.0005 ± 0.005 | -0.0165 ± 0.0035 | -0.016 ± 0.0071 | -0.0055 ± 0.019 | -0.149 ± 0.074 | -0.002 | -0.0085 ± 0.0078 | -0.009 ± 0.0085 | 0.018 ± 0.0042 | -0.008 ± 0.0099 | -0.0625 ± 0.015
4 | BT:Secreted IgG | 0.021 ± 0.055 | 0.024 ± 0.013 | -0.0115 ± 0.016 | -0.009 ± 0.017 | -0.023 ± 0.02 | -0.029 ± 0.072 | 0.001 ± 0.03 | 0.0065 ± 0.06 | 0.0175 ± 0.011 | 0.0295 ± 0.012 | 0.0235 ± 0.033 | -0.0365 ± 0.0064 | 0.016 ± 0.0028 | -0.033 ± 0.098 | -0.212 ± 0.17 | -0.0005 ± 0.0078 | 0.0025 ± 0.021 | -0.0315 ± 0.016
5 | SAg:CXCL8/IL-8 | -0.024 ± 0.031 | 0.0185 ± 0.0064 | -0.0195 ± 0.046 | -0.062 ± 0.024 | -0.098 ± 0.14 | -0.028 ± 0.051 | 0.0035 ± 0.069 | 0.0125 ± 0.0078 | 0.0445 ± 0.0092 | -0.018 ± 0.0028 | -0.0295 ± 0.018 | -0.0385 ± 0.022 | -0.029 ± 0.079 | -0.0335 ± 0.039 | 0.0525 ± 0.018 | -0.015 | 0.01 ± 0.0057 | 0.041 ± 0.0085
6 | BF4T:uPA | 0.0015 ± 0.032 | -0.0055 ± 0.005 | -0.006 ± 0.011 | -0.0085 ± 0.005 | -0.025 ± 0.0014 | 0.0075 ± 0.0078 | 0.017 ± 0.0028 | -0.0045 ± 0.012 | -0.01 ± 0.0071 | 0.0105 ± 0.005 | 0.008 ± 0.013 | 0.025 ± 0.031 | 0.0015 ± 0.015 | -0.003 ± 0.03 | -0.008 ± 0.013 | 0.0005 ± 0.016 | 0.0175 ± 0.00071 | 0.0375 ± 0.023
7 | SAg:CXCL9/MIG | -0.003 ± 0.017 | 0.009 ± 0.0014 | -0.002 ± 0.011 | 0.0015 ± 0.00071 | 0.002 ± 0.016 | -0.004 ± 0.014 | 0.001 ± 0.0085 | -0.001 ± 0.013 | -0.0025 ± 0.0021 | -0.0095 ± 0.016 | -0.0135 ± 0.013 | 0.01 ± 0.0042 | -0.0005 ± 0.015 | -0.0105 ± 0.018 | 0 ± 0.0057 | -0.0035 ± 0.0035 | 0.0105 ± 0.012 | 0.005 ± 0.013
8 | BT:PBMC Cytotoxicity | 0.0145 ± 0.025 | 0.0105 ± 0.029 | 0.0255 ± 0.0035 | -0.019 ± 0.011 | 0.0105 ± 0.042 | -0.01 ± 0.0042 | 0.0305 ± 0.059 | 0.015 ± 0.028 | 0.0355 ± 0.015 | 0.017 ± 0.028 | 0.0265 ± 0.0021 | 0.0915 ± 0.005 | 0.03 ± 0.021 | 0.0185 ± 0.033 | 0.019 ± 0.017 | 0.0295 ± 0.0064 | 0.038 ± 0.016 | 0.078 ± 0.047
9 | BE3C:CD87/uPAR | 0.0015 ± 0.016 | -0.004 ± 0.023 | 0.0035 ± 0.032 | 0.0235 ± 0.0078 | -0.0045 ± 0.005 | 0.015 ± 0.034 | 0.065 ± 0.05 | 0.0445 ± 0.0021 | -0.0005 ± 0.039 | 0.018 ± 0.0014 | 0.0455 ± 0.025 | 0.102 ± 0.0099 | -0.0085 ± 0.0064 | 0.005 ± 0.033 | 0.0255 ± 0.037 | 0.0465 ± 0.005 | 0.081 ± 0.045 | 0.0355 ± 0.0021
10 | SAg:CCL2/MCP-1 | -0.0015 ± 0.0035 | 0.0175 ± 0.0092 | -0.005 | -0.0155 ± 0.0035 | -0.0085 ± 0.05 | -0.021 ± 0.0057 | -0.0185 ± 0.0064 | 0.017 ± 0.021 | -0.0055 ± 0.005 | 0.017 ± 0.088 | -0.0255 ± 0.00071 | -0.0895 ± 0.026 | -0.005 ± 0.0085 | -0.007 ± 0.02 | -0.019 ± 0.025 | 0.003 | 0.004 ± 0.0042 | 0.0015 ± 0.0064
11 | BE3C:CXCL9/MIG | 0.0015 ± 0.00071 | -0.0085 ± 0.0035 | -0.0045 ± 0.0035 | -0.0025 ± 0.0064 | -0.0005 ± 0.0064 | -0.016 ± 0.02 | -0.006 ± 0.017 | -0.0015 ± 0.00071 | -0.047 | -0.0045 ± 0.011 | -0.011 ± 0.017 | -0.012 ± 0.0057 | -0.003 | -0.008 ± 0.0057 | 0.0005 ± 0.0035 | 0.0105 ± 0.0078 | -0.011 ± 0.021 | -0.513 ± 0.32
12 | LPS:sTNF-alpha | 0.0045 ± 0.088 | 0.0175 ± 0.011 | -0.001 ± 0.0014 | 0.0195 ± 0.0064 | 0.07 ± 0.014 | -0.009 ± 0.037 | 0.003 ± 0.018 | -0.0115 ± 0.0078 | -0.004 ± 0.014 | 0.012 ± 0.011 | 0.0155 ± 0.018 | 0.0135 ± 0.015 | -0.017 ± 0.0014 | -0.0165 ± 0.005 | -0.014 ± 0.0085 | 0.0195 ± 0.079 | -0.043 ± 0.062 | -0.0545 ± 0.076
13 | 3C:CD87/uPAR | -0.0235 ± 0.054 | -0.015 ± 0.048 | -0.0255 ± 0.056 | -0.0435 ± 0.026 | -0.0255 ± 0.033 | 0.032 ± 0.081 | 0.0405 ± 0.073 | -0.013 ± 0.017 | -0.011 ± 0.038 | 0.0065 ± 0.013 | -0.0145 ± 0.011 | -0.083 ± 0.058 | -0.0155 ± 0.043 | -0.0055 ± 0.016 | -0.021 ± 0.023 | 0.04 ± 0.037 | 0.0285 ± 0.022 | 0.0235 ± 0.036
14 | BT:sIL-6 | 0.016 ± 0.0057 | -0.019 ± 0.059 | -0.038 ± 0.038 | -0.029 ± 0.0057 | -0.013 ± 0.023 | -0.0615 ± 0.052 | -0.0545 ± 0.13 | 0.0155 ± 0.022 | 0.0135 ± 0.018 | 0.0375 ± 0.029 | 0.0265 ± 0.039 | -0.058 ± 0.033 | 0.003 ± 0.011 | -0.0345 ± 0.013 | -0.0825 ± 0.032 | 0.0325 ± 0.06 | -0.0415 ± 0.046 | -0.0185 ± 0.039
